# PMC11249239 (PLOS ONE, 2024)
# Values joined by “and” are separate entries in the source; they are usually repeats but may differ in a detail not shown here. Equal entries are not always repeated. Where two headings read alike, the source gives them in different places.
# Experiments:
# acetylated α-tubulin = experiment: Western blot, acetylation of α-tubulin; assay type: cell-based; details: MCF7 and MDA-MB-231; 1 μM; time dependent
# Source text: (§1) Following treatment of cells with SP-1-303 over a time course, total or nuclear proteins were extracted and analyzed on 4–20% trisglycine gradient sodium dodecyl sulfate polyacrylamide gel electrophoresis (SDS-PAGE). Subsequently, membranes were probed with antibodies targeting specific proteins in accordance with the manufacturers’ protocols, including ATM (ab78), p-BRCA1 (ab90528), BRCA1 (ab191042), p-p53/S15 (ab1431), acetylated H3K9 (ab12179) from Abcam, as well as p-ATM (# 5883) and p53 (#9282) from Cell Signaling, α-tubulin (T6793) and β-actin (A3854) from Sigma-Aldrich, ER-α (cat# MA1-80216, Invitrogen) and HDAC2 (BML-SA402. Enzo). Protein images were captured using ECL Prime Western Blotting Detection Reagents (Cat#. RPN2232, Amersham) and the Amersham Imager 600. For immunofluorescent analysis, formalin fixed cells were permeabilized with 0.1% Triton X-100 in TBS for 10 minutes at room temperature, followed by blocking with 1% Blocker BSA for 15 minutes at room temperature. Cells were then probed with a phospho-ATM monoclonal antibody (MA5-15185) and DyLight 488 goat anti-mouse IgG secondary antibody at room temperature. Actin was stained with DyLight 554 phalloidin, while nuclei were stained with 4’,6-diamidino-2-phenylindole dye (DAPI). Images were captured using a Nikon Epi Fluorescent microscopy.
# MCF7 cells [1] = experiment: Cell cycle analysis by flow cytometry (FACS); assay type: cell-based
# Procedure: Cells were treated with SP-1-303 for 24, 48, and 72 hours. DMSO and ionizing radiation (IR) were used on controls. The cell cycle distributions were analyzed by flow cytometry. The cells were harvested at the indicated times, washed twice with cold phosphate-buffered saline (PBS), and fixed with citrate/DMSO buffer for overnight. The cells were resuspended in PBS containing 40 μg/ml of DNase-free RNase A and 50 μg/ml of propidium iodide, and the cell cycle distributions were measured in a fluorescence-activated cell sorter (FACSort) from Becton Dickinson. DNA content was quantified using ModFit LT 3.0 software (Verity Software House, Inc).
# [2] = system: pan-HDACs (HeLa cell extract); experiment: In vitro HDAC enzyme inhibition, HeLa cell nuclear extract (Fluor de Lys); assay type: biochemical; details: ± margin of error of 95% confidence interval
# Source text: (§2) In vitro HDAC enzyme inhibition assays utilized HeLa cell extract for pan-HDACs with the substrate Fluor-Lys following the manufacturer’s protocol (BIOMOL/ENZO, Plymouth Meeting, PA). For isoform assays, purified HDAC1, HDAC3, and HDAC6 recombinant proteins produced by expressing epitope-tagged full-length proteins in the sf9 baculovirus expression vector system were purchased from PBS Bioscience (San Diego, CA). […] The reaction commenced with the addition of HDAC substrate at room temperature and proceeded for 30 minutes. Termination of the reaction was achieved by adding 50 μL of Fluor de Lys (TM) Assay Developer. The fluorophore was excited at 360 nm and emitted light at 460 nm. Relative fluorescence was measured using a FlexStation II plate reader (Molecular Devices, Sunnyvale, CA).
# MCF7 cells [3] = experiment: Radiation clonogenic survival assay, MCF7; assay type: cell-based; details: 0.3 μM for 24 h then graded γ-radiation, DMSO control 1.5 Gy
# Procedure: Logarithmically growing cells were treated with vehicle (0.1% Dimethyl Sulfoxide) or SP-1-303 (0.3 μM) for 24 h followed by sham or γ-radiation using a Mark-30 irradiator with a 137Cs source at a fixed dose rate of 2.71 Gy/min. Cells were exposed to graded doses at room temperature. After 10–14 days, cells were fixed and stained with crystal violet, and colonies were counted. The surviving fractions of treated cells were normalized using the plating efficiencies of untreated controls. Radiation survival curves were generated by fitting to the single-hit, multitarget model.
# HDAC3 = molecular target: T1, HDAC3 (Homo sapiens, UniProt O15379); experiment: In vitro HDAC isoform inhibition, purified recombinant HDAC3; assay type: biochemical; details: purified recombinant protein; ± margin of error of 95% confidence interval; read-out: IC50 HDAC inhibition activity in vitro, HDAC 3
# T1 construct: purchased PBS Bioscience [sic] (San Diego, CA); host or cells: Sf9 insect cells / baculovirus
# Source text: as §2
# MDA-MB-231 (TNB) cells = experiment: Cell growth inhibition (CCK8 cytotoxicity assay), MDA-MB-231; assay type: cell-based; details: 48 h treatment, read-out: Average EC50 ± SD, cell growth inhibition
# HDAC8 = HDAC8 (Homo sapiens, UniProt Q9BY41); experiment: HDAC8 activity inhibition (data not shown); assay type: biochemical
# T47D (ER+) cells = experiment: Cell growth inhibition (CCK8 cytotoxicity assay), T47D; assay type: cell-based; details: 48 h treatment, read-out: Average EC50 ± SD, cell growth inhibition
# phosphorylated BRCA1 = experiment: Western blot, phosphorylated BRCA1; assay type: cell-based; details: 1 μM
# Source text: as §1
# p53 = experiment: Western blot of nuclear extracts, p53 expression; assay type: cell-based; details: 1 μM, time course
# Source text: as §1
# HDAC1 = molecular target: T2, HDAC1 (Homo sapiens, UniProt Q13547); experiment: In vitro HDAC isoform inhibition, purified recombinant HDAC1; assay type: biochemical; details: purified recombinant protein; ± margin of error of 95% confidence interval; read-out: IC50 HDAC inhibition activity in vitro, HDAC 1
# T2 construct: purchased PBS Bioscience [sic] (San Diego, CA); host or cells: Sf9 insect cells / baculovirus
# Source text: as §2
# HDAC4 = HDAC4 (Homo sapiens, UniProt P56524); experiment: HDAC4 activity inhibition (data not shown); assay type: biochemical; details: read-out: IC50 class IIa HDAC4 inhibition
# p-ATM/S1981 = experiment: Western blot, phosphorylation of ATM; assay type: cell-based; details: MCF7 and MDA-MB-231; 1 μM; within 0.5 h
# Source text: as §1
# Chain of HDAC8 (Q9BY41 whole entry, species assumed): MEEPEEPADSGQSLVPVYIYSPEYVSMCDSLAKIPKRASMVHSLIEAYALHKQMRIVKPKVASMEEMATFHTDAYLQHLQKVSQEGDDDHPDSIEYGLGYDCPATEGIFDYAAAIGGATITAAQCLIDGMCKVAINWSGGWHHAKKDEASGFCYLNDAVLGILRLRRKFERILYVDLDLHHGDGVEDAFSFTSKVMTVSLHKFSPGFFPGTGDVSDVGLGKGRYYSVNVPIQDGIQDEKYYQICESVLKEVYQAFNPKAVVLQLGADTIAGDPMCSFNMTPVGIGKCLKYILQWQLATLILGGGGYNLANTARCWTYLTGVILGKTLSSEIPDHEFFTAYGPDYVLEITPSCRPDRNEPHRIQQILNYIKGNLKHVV
# T2 sequence (Q13547 whole entry, canonical isoform): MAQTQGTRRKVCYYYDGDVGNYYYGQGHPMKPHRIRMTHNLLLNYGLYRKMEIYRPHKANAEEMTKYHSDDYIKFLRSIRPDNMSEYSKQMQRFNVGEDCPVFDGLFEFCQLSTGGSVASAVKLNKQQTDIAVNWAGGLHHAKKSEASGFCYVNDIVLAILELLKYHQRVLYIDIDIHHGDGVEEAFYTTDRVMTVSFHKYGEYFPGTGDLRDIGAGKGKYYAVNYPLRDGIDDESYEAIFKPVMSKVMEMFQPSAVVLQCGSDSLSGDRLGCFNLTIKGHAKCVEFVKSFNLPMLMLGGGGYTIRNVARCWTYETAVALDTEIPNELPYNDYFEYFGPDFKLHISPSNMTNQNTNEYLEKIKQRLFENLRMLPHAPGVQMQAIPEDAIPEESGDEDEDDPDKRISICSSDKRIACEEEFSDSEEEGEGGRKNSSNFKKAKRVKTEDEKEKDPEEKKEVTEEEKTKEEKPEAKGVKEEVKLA
# T1 sequence (O15379 whole entry, canonical isoform): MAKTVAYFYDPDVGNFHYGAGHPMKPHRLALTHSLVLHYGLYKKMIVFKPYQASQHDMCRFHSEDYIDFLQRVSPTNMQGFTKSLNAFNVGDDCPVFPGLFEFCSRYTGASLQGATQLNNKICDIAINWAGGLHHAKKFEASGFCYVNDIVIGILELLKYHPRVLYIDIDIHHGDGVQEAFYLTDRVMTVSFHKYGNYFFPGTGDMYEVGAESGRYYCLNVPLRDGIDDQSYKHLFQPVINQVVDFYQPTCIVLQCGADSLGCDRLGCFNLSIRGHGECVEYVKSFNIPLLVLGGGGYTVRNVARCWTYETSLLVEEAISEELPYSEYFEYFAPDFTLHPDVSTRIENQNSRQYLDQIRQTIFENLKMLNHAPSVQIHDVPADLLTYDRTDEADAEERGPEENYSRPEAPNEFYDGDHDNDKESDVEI
# T1 sequence (Q9Y618 395-489 partner limits assumed): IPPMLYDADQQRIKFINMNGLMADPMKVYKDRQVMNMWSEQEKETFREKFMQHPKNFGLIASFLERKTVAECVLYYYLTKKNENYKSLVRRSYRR
# Chain of HDAC4 (P56524 whole entry, species assumed): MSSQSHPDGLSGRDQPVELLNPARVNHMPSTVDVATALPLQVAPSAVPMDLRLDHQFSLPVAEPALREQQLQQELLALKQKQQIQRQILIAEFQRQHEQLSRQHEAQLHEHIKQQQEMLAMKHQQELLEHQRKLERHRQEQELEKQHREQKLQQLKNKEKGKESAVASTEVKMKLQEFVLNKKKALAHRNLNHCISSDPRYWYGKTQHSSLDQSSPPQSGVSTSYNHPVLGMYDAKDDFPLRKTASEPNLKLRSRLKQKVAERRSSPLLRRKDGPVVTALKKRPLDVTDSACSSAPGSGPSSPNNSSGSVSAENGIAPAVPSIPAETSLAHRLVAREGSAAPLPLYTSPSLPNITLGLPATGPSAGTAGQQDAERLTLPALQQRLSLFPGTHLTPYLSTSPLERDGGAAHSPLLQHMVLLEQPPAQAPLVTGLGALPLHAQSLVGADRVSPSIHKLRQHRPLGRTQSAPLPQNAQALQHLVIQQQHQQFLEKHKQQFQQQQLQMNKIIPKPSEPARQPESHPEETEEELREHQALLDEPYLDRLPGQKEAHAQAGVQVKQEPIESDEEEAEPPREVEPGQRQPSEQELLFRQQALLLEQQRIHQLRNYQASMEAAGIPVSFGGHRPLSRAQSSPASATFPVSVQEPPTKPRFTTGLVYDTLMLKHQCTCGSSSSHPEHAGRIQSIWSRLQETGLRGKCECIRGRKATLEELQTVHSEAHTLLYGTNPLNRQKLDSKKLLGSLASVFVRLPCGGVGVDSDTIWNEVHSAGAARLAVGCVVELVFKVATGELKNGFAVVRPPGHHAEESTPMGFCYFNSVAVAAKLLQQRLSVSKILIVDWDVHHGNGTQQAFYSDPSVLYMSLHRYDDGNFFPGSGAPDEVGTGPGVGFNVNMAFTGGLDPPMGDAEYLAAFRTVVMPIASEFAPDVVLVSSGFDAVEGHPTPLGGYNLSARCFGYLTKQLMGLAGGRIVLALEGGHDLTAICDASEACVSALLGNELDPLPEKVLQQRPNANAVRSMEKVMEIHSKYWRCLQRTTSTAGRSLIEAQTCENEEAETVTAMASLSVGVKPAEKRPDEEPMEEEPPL
smiles,measurement,setting,value
Cc1[nH]c2ccccc2c1C1=C(c2c(C)[nH]c3ccccc23)C(=O)N(CCCCCCC(=O)NO)C1=O [SP-1-303],acetylation of α-tubulin,acetylated α-tubulin,gradually increased
same,% Cells in G1,MCF7 cells [1]; 24 HR,89.44%
same,% Cells in G2/M,MCF7 cells [1]; 24 HR,6.19%
same,% Cells in S,MCF7 cells [1]; 24 HR,4.37%
same,% Cells in G2/M,MCF7 cells [1]; 24 HR + IR,5.12%
same,% Cells in S,MCF7 cells [1]; 24 HR + IR,3.91%
same,% Cells in G1,MCF7 cells [1]; 24 HR + IR (combination with radiation),91% and 90.97%
same,% Cells in G1,MCF7 cells [1]; 48 HR,71.02%
same,% Cells in G2/M,MCF7 cells [1]; 48 HR,6.75%
same,% Cells in S,MCF7 cells [1]; 48 HR,22.24%
same,% Cells in G1,MCF7 cells [1]; 72 HR,81.35%
same,% Cells in G2/M,MCF7 cells [1]; 72 HR,6.21%
same,% Cells in S,MCF7 cells [1]; 72 HR,12.45%
same,IC50,[2],120 ± 58 nM
same,"D0, radiation clonogenic survival",MCF7 cells [3],1.3 Gy
same,IC50,HDAC3,14 ± 2 nM
same,EC50,MDA-MB-231 (TNB) cells,1220 ± 243 nM
same,EC50,"MDA-MB-231 (TNB) cells; Homo sapiens, MDA-MB-231, 48 h",1200 nM
same,IC50,HDAC8,310 nM
same,EC50,T47D (ER+) cells,321 ± 27 nM
same,EC50,"T47D (ER+) cells; Homo sapiens, T47D, 48 h",320 nM
same,phosphorylated BRCA1,"phosphorylated BRCA1; MCF7, within 1h to 2h",induction
same,phosphorylated BRCA1,phosphorylated BRCA1; MDA-MB-231,without significant alteration
same,expression of p53,p53; MCF7,gradual increase
same,expression of p53,p53; MDA-MB-231,no significant change
same,IC50,HDAC1,12 ± 1 nM
same,IC50,HDAC4,> 20000 nM
same,phosphorylation of ATM/S1981,p-ATM/S1981,significantly enhanced
